Publication PMC4663080 (Journal of enzyme inhibition and medicinal chemistry, 2010)

Columns and labels:
[1] = biological target: T1, Electrophorus electricus AChE (Electrophorus electricus, UniProt O42275); type: biochemical
[2] = biological target: T1, Electrophorus electricus AChE; experiment: Steady-state enzyme kinetics of AChE in the presence of nantenine; type: biochemical
AChE [3] = biological target: AChE (Electrophorus electricus, UniProt O42275); experiment: TLC anticholinesterase bioautographic assay; type: biochemical; settings: compared with galanthamine (1)
Chain of AChE (Electrophorus electricus, UniProt O42275) (O42275 24-633): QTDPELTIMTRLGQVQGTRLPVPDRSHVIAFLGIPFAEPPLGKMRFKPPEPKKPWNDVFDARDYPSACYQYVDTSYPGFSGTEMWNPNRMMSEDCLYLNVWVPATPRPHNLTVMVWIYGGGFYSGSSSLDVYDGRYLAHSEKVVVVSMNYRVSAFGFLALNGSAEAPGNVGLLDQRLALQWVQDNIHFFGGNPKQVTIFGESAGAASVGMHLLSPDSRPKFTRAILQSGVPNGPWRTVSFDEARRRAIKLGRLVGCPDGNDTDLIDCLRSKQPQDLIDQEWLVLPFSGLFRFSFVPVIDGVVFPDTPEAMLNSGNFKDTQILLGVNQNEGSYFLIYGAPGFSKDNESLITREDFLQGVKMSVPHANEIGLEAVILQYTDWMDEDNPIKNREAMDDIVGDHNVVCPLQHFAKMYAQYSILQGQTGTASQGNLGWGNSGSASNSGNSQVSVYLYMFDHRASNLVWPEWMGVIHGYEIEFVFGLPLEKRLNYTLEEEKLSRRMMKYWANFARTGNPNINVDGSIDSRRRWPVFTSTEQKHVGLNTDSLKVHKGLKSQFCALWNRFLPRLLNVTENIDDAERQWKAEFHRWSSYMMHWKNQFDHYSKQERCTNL

AChE [4] = settings: rat synaptosomal membrane as enzyme source; cited from earlier work

T1 sequence (O42275 24-633): as above

| Structure (SMILES) | fold less active than nantenine (AChE inhibition) [1] | Ki [2] | mode of inhibition ([2]; Lineweaver-Burk plot) | activity in TLC anticholinesterase bioautographic assay (AChE [3]) | activity in AChE assay (AChE [4]) |
| --- | --- | --- | --- | --- | --- |
| COc1cc2c(c(-c3ccc4c(c3)OCO4)c1OC)CN(C)CC2 [Compound 15a, 8-(benzo[d][1,3]dioxol-5-yl)-6,7-dimethoxy-2-methyl-1,2,3,4-tetrahydroisoquinoline] | approximately two-fold |  |  |  |  |
| COc1cc2c(c(-c3ccc4c(c3)OCO4)c1OC)C(C)N(C)CC2 (stereo not drawn) [Compound 15b, 8-(benzo[d][1,3]dioxol-5-yl)-6,7-dimethoxy-1,2-dimethyl-1,2,3,4-tetrahydroisoquinoline] | approximately two-fold |  |  |  |  |
| COc1cc2c3c(c1OC)-c1cc4c(cc1CC3N(C)CC2)OCO4 (stereo not drawn) [Nantenine (8), nantenine] |  | 18.7 µM | mixed inhibition | showed activity | inactive |
